Experimental data reported in patent publication US7759504B2, “Triarylamine derivative” (Fujifilm Corporation, priority 2007, dated 2010).

Columns and labels:
Format in all cases: physicochemical
[1] = Heat resistance of PMMA film sample (colorant residual rate); conditions: 80° C. for 400 hours; 5% by weight in PMMA film; absorbance at maximum absorption wavelength after/before treatment
Method: (§1) Into 25 ml of dichloromethane were dissolved 2.5 g of PMMA, and 0.125 g of the triarylamine derivative, and the solution was coated on a 100 μm-thick PET film. This was dried at 80° C. for 2 hours under reduced pressure to prepare a sample for assessment having a thickness of from 2 to 3 μm. The sample for assessment contained the triarylamine derivative at 5% by weight based on PMMA.
(§2) The sample for assessment obtained above was heat-treated at 80° C. for 400 hours. The absorbance of the assessment sample at the maximum absorption wavelength of the triarylamine derivative (colorant) was measured, and a colorant residual rate (%) was obtained as a ratio of the absorbance after heat treatment relative to the absorbance before heat treatment.

[2] = Solubility in 2-butanone (MEK)
[3] = Light resistance of PMMA film sample (colorant residual rate); conditions: 170 hours xenon lamp (170 thousands lux, UV cut filter); 5% by weight in PMMA film; absorbance after/before treatment
Method: as §1
as §2, with “irradiation-treated” for “heat-treated at 80° C.”, “170 hours with a xenon lamp (170 thousands lux, using an UV cut filter).” for “400 hours.”, “irradiation” for “heat”

[4] = Wet heat resistance of PMMA film sample (colorant residual rate); conditions: 60° C. and relative humidity of 90% for 200 hours; 5% by weight in PMMA film; absorbance after/before treatment
Method: as §1
as §2, with “subjected to wet heat treatment” for “heat-treated”, “60°” for “80°”, “C. and a relative humidity of 90%” for “C.”, “200” for “400”, “after wet” for “after”, “before wet” for “before”

SMILES	Heat Resistance (colorant residual rate) [1] [%]	Solubility (w/v) [2] [% w/v %]	Light Resistance (colorant residual rate) [3] [%]	Wet Heat Resistance (colorant residual rate) [4] [%]
CCCCN(CCCC)c1ccc([N+](=C2C=CC(=[N+](CCCC)CCCC)C=C2)c2ccc(N(CCCC)CCCC)cc2)cc1 [Comparative Example, reference compound]	80	16	98	45
CCCCN(CCCC)c1ccc([N+](=C2C=CC(=[N+](CCCC)CCCC)C=C2C)c2ccc(N(CCCC)CCCC)cc2)cc1 [Compound 28]	82	23	98	48
CCCCN(CCCC)c1ccc([N+](=C2C=CC(=[N+](CCCC)CCCC)C=C2C)c2ccc(N(CCCC)CCCC)cc2)cc1 [Compound 79]	87	32	99	89
